Data from patent US12577206B2 (BRISTOL-MYERS SQUIBB COMPANY, priority 2020, dated 2026).

Assays:
human FPR1 = target: T1, human FPR1 (Homo sapiens, UniProt P21462); assay: FPR1 cyclic adenosine monophosphate (cAMP) assay; type: cell-based; conditions: CHO cells overexpressing human FPR1; forskolin 10 μM; inhibition of cAMP production; HTRF; read-out: hFPR1 cAMP2 EC50
T1 sequence (P21462 1-350): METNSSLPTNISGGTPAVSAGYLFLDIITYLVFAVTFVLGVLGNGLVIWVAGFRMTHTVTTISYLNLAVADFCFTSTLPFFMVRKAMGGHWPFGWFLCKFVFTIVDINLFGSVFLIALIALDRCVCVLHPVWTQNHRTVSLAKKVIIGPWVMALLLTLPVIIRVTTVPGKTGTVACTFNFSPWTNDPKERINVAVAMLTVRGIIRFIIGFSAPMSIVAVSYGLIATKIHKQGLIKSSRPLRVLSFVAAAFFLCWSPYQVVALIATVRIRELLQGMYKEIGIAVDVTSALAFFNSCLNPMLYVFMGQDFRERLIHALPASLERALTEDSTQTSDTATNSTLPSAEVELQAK
Summary of the method: (§1)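 Gi-coupled activity is read as suppression of forskolin-stimulated cAMP (10 μM final for FPR1, 5 μM final for FPR2; IBMX 200 μM final) in recombinant CHO cells, 30 min incubation at rt, HTRF detection.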

human FPR2 = target: T2, human FPR2 (Homo sapiens, UniProt P25090); assay: FPR2 cyclic adenosine monophosphate (cAMP) assay; type: cell-based; conditions: CHO cells overexpressing human FPR2; forskolin 5 μM; inhibition of cAMP production; HTRF; read-out: hFPR2 cAMP2 EC50
T2 sequence (P25090 1-351): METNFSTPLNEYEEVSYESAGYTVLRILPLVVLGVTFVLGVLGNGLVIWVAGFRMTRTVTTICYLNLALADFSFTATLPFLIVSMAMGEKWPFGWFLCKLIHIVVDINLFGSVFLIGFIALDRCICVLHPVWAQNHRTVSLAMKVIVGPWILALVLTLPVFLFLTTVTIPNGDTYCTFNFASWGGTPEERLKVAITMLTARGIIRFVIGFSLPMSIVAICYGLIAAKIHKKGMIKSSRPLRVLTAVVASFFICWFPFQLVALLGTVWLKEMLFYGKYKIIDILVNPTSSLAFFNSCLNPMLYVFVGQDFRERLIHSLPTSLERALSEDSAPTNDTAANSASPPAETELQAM
Summary of the method: as §1

EC50 (human FPR1) | EC50 (human FPR2) | Compound
2.2 µM | 0.001 µM | COc1cc(F)c(-c2c(NC(=O)c3ccc(OC(F)F)cc3)c(=O)n(-c3nc(N4CCCC4C(F)(F)F)ccc3C(F)(F)F)n2C)c(F)c1 (stereo not drawn) [Example 302, N-[5-(2,6-difluoro-4-methoxyphenyl)-1-methyl-3-oxo-2-[3-(trifluoromethyl)-6-[2-(trifluoromethyl)pyrrolidin-1-yl]pyridin-2-yl]-2,3-dihydro-1H-pyrazol-4-yl]-4-(difluoromethoxy)benzamide]
> 10 µM | 0.001 µM | COc1cc(F)c(-c2c(NC(=O)c3ccc(OC(F)F)cc3)c(=O)n(-c3nc(N4CCC(C(N)=O)C4)ccc3C(F)(F)F)n2C)c(F)c1 (stereo not drawn) [Example 303, 1-{6-[3-(2,6-difluoro-4-methoxyphenyl)-4-[4-(difluoromethoxy)benzamido]-2-methyl-5-oxo-2,5-dihydro-1H-pyrazol-1-yl]-5-(trifluoromethyl)pyridin-2-yl}pyrrolidine-3-carboxamide]
0.11 µM | 0.021 µM | Cn1c(-c2ccc(OC(F)(F)F)cc2)c(NC(=O)c2ccc(OC(F)F)cc2)c(=O)n1-c1ncccc1C(F)(F)F [Example 304, 4-(difluoromethoxy)-N-{1-methyl-3-oxo-5-[4-(trifluoromethoxy)phenyl]-2-[3-(trifluoromethyl)pyridin-2-yl]-2,3-dihydro-1H-pyrazol-4-yl}benzamide]

Further lines, the molecule ahead of its results:

Compound | EC50 (human FPR1) | EC50 (human FPR2)
COc1cc(O)c(-c2c(NC(=O)c3ccc(OC(F)F)cc3)c(=O)n(-c3nc(Cl)ccc3Cl)n2C)c(F)c1 [Example 296, N-[2-(3,6-dichloropyridin-2-yl)-5-(2-fluoro-6-hydroxy-4-methoxyphenyl)-1-methyl-3-oxo-2,3-dihydro-1H-pyrazol-4-yl]-4-(difluoromethoxy)benzamide] | > 10 µM | 0.033 µM
COc1cc(F)c(-c2c(NC(=O)c3ccc(OC(F)F)cc3)c(=O)n(-c3nc(N4CCCC4=O)ccc3C(F)(F)F)n2C)c(F)c1 [Example 297, N-[5-(2,6-difluoro-4-methoxyphenyl)-1-methyl-3-oxo-2-[6-(2-oxopyrrolidin-1-yl)-3-(tifluoromethyl)pyridin-2-yl]-2,3-dihydro-1H-pyrazol-4-yl]-4-(difluoromethoxy)benzamide] | 0.38 µM | 0.002 µM
COc1cc(F)c(-c2c(NC(=O)c3ccc(OC(F)F)cc3)c(=O)n(-c3nc(OCC(C)(C)O)ccc3Cl)n2C)c(F)c1 [Example 298, N-{2-[3-chloro-6-(2-hydroxy-2-methylpropoxy)pyridin-2-yl]-5-(2,6-difluoro-4-methoxyphenyl)-1-methyl-3-oxo-2,3-dihydro-1H-pyrazol-4-yl}-4-(difluoromethoxy)benzamide] | 0.44 µM | 0.014 µM
COc1cc(F)c(-c2c(NC(=O)c3ccc(OC(F)F)cc3)c(=O)n(-c3nc(N4CC5(CC(O)C5)C4)ccc3Cl)n2C)c(F)c1 [Example 299, N-[2-(3-chloro-6-{6-hydroxy-2-azaspiro[3.3]heptan-2-yl}pyridin-2-yl)-5-(2,6-difluoro-4-methoxyphenyl)-1-methyl-3-oxo-2,3-dihydro-1H-pyrazol-4-yl]-4-(difluoromethoxy)benzamide] | > 5 µM | 0.008 µM
COc1cc(F)c(-c2c(NC(=O)c3ccc(OC(F)F)cc3)c(=O)n(-c3nc(N4CC(O)C4)ccc3Cl)n2C)c(F)c1 [Example 300, N-{2-[3-chloro-6-(3-hydroxyazetidin-1-yl)pyridin-2-yl]-5-(2,6-difluoro-4-methoxyphenyl)-1-methyl-3-oxo-2,3-dihydro-1H-pyrazol-4-yl}-4-(difluoromethoxy)benzamide] | > 5 µM | 0.007 µM
Cn1c(-c2ccc(C(F)(F)F)cc2)c(NC(=O)c2ccc(OC(F)F)cc2)c(=O)n1-c1ncccc1C(F)(F)F [Example 301, 4-(difluoromethoxy)-N-{1-methyl-3-oxo-5-[4-(trifluoromethyl)phenyl]-2-[3-(trifluoromethyl)pyridin-2-yl]-2,3-dihydro-1H-pyrazol-4-yl}benzamide] | 0.14 µM | 0.006 µM
